The compounds below were run against T1, FAAH (Rattus norvegicus, UniProt P97612) (assay: FAAH inhibition, rat brain membrane homogenate assay). Conditions: average; FAAH extracted from rat brain homogenate; read-out: Rat Brian Extract IC50.
T1 construct: For assay of FAAH activity in rat brain membrane (RBM) homogenates; tissue Charles River; host or cells: rat (CD strain) brain membrane homogenate
T1 sequence (P97612 1-579): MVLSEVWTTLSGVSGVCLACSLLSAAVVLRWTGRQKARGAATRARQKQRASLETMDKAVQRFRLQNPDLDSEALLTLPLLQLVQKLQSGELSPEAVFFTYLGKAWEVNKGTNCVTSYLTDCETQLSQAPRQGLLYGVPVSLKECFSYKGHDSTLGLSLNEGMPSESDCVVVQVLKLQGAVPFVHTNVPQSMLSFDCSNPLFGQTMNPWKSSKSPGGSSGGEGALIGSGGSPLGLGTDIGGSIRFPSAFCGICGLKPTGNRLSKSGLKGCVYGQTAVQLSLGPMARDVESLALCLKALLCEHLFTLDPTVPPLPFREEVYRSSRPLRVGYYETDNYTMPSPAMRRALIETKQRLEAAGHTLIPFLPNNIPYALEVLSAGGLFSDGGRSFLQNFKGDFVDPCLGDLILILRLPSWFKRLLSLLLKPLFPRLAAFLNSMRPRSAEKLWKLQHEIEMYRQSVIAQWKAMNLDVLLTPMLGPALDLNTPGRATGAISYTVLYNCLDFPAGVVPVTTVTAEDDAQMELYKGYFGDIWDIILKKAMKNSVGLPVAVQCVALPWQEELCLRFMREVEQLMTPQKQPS
Type: biochemical
Experimental: Adult rats (Charles River CD strain, female, 200 g) were anaesthetized with isofluorane and rapidly decapitated. Each brain was quickly removed and chilled in tubes (3 brains per tube) on ice. About 25 mL of “homogenization buffer” (20 mM HEPES buffer, pH 7.0, with 1 mM MgCl2) was added to 15 to 20 g of brain. The brains were homogenized on ice for 1 minute using an Omni GLH homogenizer (Omni International, Marietta, Ga.). The homogenates were then transferred to three centrifuge tubes and centrifuged at 36,500 g for 20 minutes at 4° C. The supernatant was discarded and each pellet was re-suspended in 25 mL homogenization buffer. The re-suspended material was again centrifuged (36,500 g, 20 minutes at 4° C.). Pellets were combined by resuspension in 10 mL of homogenization buffer and incubated in a 37° C. water bath for 15 minutes. The tubes were then placed on ice for 5 minutes followed by centrifugation at 36,500 g for 20 minutes at 4° C. The supernatant was discarded and the membrane pellets were then re-suspended in 40 mL of “resuspension buffer” (50 mM Tris-HCl buffer, pH 7.4, containing 1 mM EDTA and 3 mM MgCl2). A Bradford Protein assay was performed to determine protein concentration. The protein was aliquotted into screw cap Cryo tubes each containing ˜400 μL, flash frozen in liquid nitrogen and stored at −80° C. until used for the assay. A similar protocol was used to obtain brain membrane homogenates from mice.
FAAH activity was assayed in the respective homogenates described herein (Rat brain, Mouse brain or Human brain) for certain exemplary substrate compounds using a modification of the method of Omeir et al. (1995 Life Sci 56:1999) and Fowler et al. (1997 J. Pharmacol Exp Ther 283:729). For assay of FAAH activity in rat brain membrane (RBM) homogenates, RBM homogenates (7 μg protein in 20 μL final volume of 10 mM Tris pH 6.5) were mixed with 180 μL of a mixture of the following: 2.0 μM unlabelled anandamide, 0.03 μCi radio labeled anandamide [ethanolamine 1-^3H] (40-60 Cis/mmol, product number ART-626, American Radiolabeled Chemicals, St. Louis, Mo.), 1 mg/mL Bovine Serum Albumin (fatty acid-free BSA, electrophoresis grade, Sigma, St. Louis, Mo.), 10 mM Tris-HCl (pH 6.5), and 1 mM EDTA in the presence and absence of test compounds (vehicle was DMSO at a final concentration of 1%) and incubated for 10 minutes at 37° C. Samples were placed on ice to terminate the reactions.
^3H-ethanolamine product and un-reacted ^3H-anandamide substrate were then separated either: (1) by using chloroform/methanol extraction or (2) by passing the reaction mixture through a glass fiber filter containing activated charcoal. Samples were extracted with chloroform/methanol by adding 0.4 mL of chloroform/methanol (1:1 v/v), vigorously mixing the samples, and separating the aqueous and organic phases by centrifugation. Radioactivity (corresponding to FAAH-catalyzed breakdown of ^3H-anandamide) found in aliquots (0.2 mL) of the aqueous phase was determined by liquid scintillation counting with quench correction. IC50 values were determined as described by Jonsson et al. (2001 Br. J. Pharmacol. 133:1263). Alternatively, reactions were purified using a modification of the solid-phase extraction method described by Wilson et al (2003 Anal. Biochem. 318:270). This method was modified as follows: after reactions were incubated at 37° C. for 10 minutes and chilled on ice, the reaction mixtures were acidified by adding 10 μL of sodium phosphate solution [0.5M (pH 2.0)]. Next, 90 μL aliquots of the acidified reaction mixtures were applied to activated charcoal (that had been previously washed with methanol as described by Wilson et al. (supra)) containing 80 μL of water on top of a glass fiber filter, centrifuged, and the radioactivity in the eluate was counted as described previously by Wilson et al. (supra). […]
`Cc1c(C(=O)C(=O)Nc2cccc(Cl)c2)c(-c2ccccc2)c(C)n1Cc1ccc(Cl)cc1` [Compound I-20, 2-(1-(4-chlorobenzyl)-2,5-dimethyl-4-phenyl-1H-pyrrol-3-yl)-N-(3-chlorophenyl)-2-oxoacetamide] was tested, and the IC50 was 1040 nM.
`COc1ccc(Cn2c(C)cc(C(=O)C(=O)Nc3ccnc(OC)c3)c2C)cc1` [Compound I-22, 2-(1-(4-methoxybenzyl)-2,5-dimethyl-1H-pyrrol-3-yl)-N-(2-methoxypyridin-4-yl)-2-oxoacetamide] showed an IC50 of 1770 nM.
In the case of `COc1cc(NC(=O)C(=O)c2c(-c3ccccc3)c(C)n(Cc3ccc(Cl)cc3)c2C)ccn1` [Compound I-19, 2-(1-(4-chlorobenzyl)-2,5-dimethyl-4-phenyl-1H-pyrrol-3-yl)-N-(2-methoxypyridin-4-yl)-2-oxoacetamide], the IC50 is reported as 5 nM.
In the case of `Cc1c(C(=O)C(=O)Nc2cccc(Cl)c2)cc(-c2ccccc2)n1Cc1ccc(Cl)cc1` [Compound I-25, 2-(1-(4-chlorobenzyl)-2-methyl-5-phenyl-1H-pyrrol-3-yl)-N-(3-chlorophenyl)-2-oxoacetamide], the IC50 is reported as 28 nM.
In the case of `COc1cc(NC(=O)C(=O)c2cc(C)n(Cc3ccc(Cl)cc3)c2-c2ccccc2)ccn1` [Compound I-23, 2-(1-(4-chlorobenzyl)-5-methyl-2-phenyl-1H-pyrrol-3-yl)-N-(2-methoxypyridin-4-yl)-2-oxoacetamide], the IC50 is reported as 185 nM.
With `Cc1c(C(=O)C(=O)Nc2cccc(Cl)c2)c2c(n1Cc1ccc(Cl)cc1)CCCC2` [Compound I-16, 2-(1-(4-chlorobenzyl)-2-methyl-4,5,6,7-tetrahydro-1H-indol-3-yl)-N-(3-chlorophenyl)-2-oxoacetamide] the IC50 was 4 nM.
With `Cc1cc(C(=O)C(=O)Nc2cccc(Cl)c2)c(-c2ccccc2)n1Cc1ccc(Cl)cc1` [Compound I-24, 2-(1-(4-chlorobenzyl)-5-methyl-2-phenyl-1H-pyrrol-3-yl)-N-(3-chlorophenyl)-2-oxoacetamide] the IC50 was greater than 5000 nM.
`Cc1c(C(=O)C(=O)Nc2ccncc2)cc(-c2ccccc2)n1Cc1ccc(Cl)cc1` [Compound I-26, 2-(1-(4-chlorobenzyl)-2-methyl-5-phenyl-1H-pyrrol-3-yl)-2-oxo-N-(pyridin-4-yl)acetamide] was tested, and the IC50 was greater than 5000 nM.
With `COc1cc(NC(=O)C(=O)c2cc(C)n(Cc3ccc(Cl)cc3Cl)c2C)ccn1` [Compound I-21, 2-(1-(2,4-dichlorobenzyl)-2,5-dimethyl-1H-pyrrol-3-yl)-N-(2-methoxypyridin-4-yl)-2-oxoacetamide] the IC50 was 1 nM.
`COc1cc(NC(=O)C(=O)c2c3c(n(Cc4ccc(Cl)cc4)c2C)CCCC3)ccn1` [Compound I-18, 2-(1-(4-chlorobenzyl)-2-methyl-4,5,6,7-tetrahydro-1H-indol-3-yl)-N-(2-methoxypyridin-4-yl)-2-oxoacetamide] showed an IC50 of 1440 nM.

Source: patent US20130109721A1, “FAAH Inhibitors” (Ironwood Pharmaceuticals, Inc., priority 2009, published 2013)
